Assay results as given in US3966978A (American Cyanamid Company, priority 1975, dated 1976).
Several values for one entry are separate records, joined by “and”; a condition that tells them apart may be missing. Equal values may be shown once.

Experiments:
platelet rich plasma = assay: Collagen-induced aggregation of platelet rich plasma from orally treated male rats; assay type: in vivo; conditions: Rattus norvegicus, po, 2 h, 100 mg./kg. orally, bled after one to two hours, collagen 500 mcg./ml., read-out: Percent Inhibition of aggregation
Procedure: In a second test the in vivo activity of the compound was established. In this test the compound was administered orally to male rats at a concentration of 100 mg./kg. After one to two hours, the rats were bled and platelet rich plasma obtained. Collagen, at a concentration of 500 mcg./ml. was added to induce platelet aggregation and comparisons were made between control and treated samples. The percent inhibition of aggregation produced by the compound of this invention appears in Table II.

[1] = system: respiratory depression associated with platelet aggregation and thrombosis induced by arachidonic acid; assay: Respiratory depression induced by arachidonic acid in mice; assay type: in vivo
Procedure: Two hours later a challenge dose of arachidonic acid was given to the mice intravenously at a concentration of 50 mg./kg. The period of respiratory distress for each animal was recorded in seconds by observation. The results appear in Table III in comparison with controls who received only starch vehicle.

[2] = system: human platelet rich plasma; assay: Collagen-induced platelet aggregation in vitro in human platelet rich plasma (method of Born and O'Brien), change in optical density; assay type: cell-based; conditions: collagen 500 mcg./ml., read-out: Percent Inhibition (of maximum aggregation response to collagen in a control sample)
Procedure: Various concentrations of the compound were added in vitro to human platelet rich plasma. Collagen (final concentration 500 mcg./ml.) was added to induce platelet aggregation. Inhibition of platelet aggregation was determined by measuring the change in the optical density of the platelet rich plasma.

pain = conditions: warm-blooded animals; U.S. Pat. No. 3,784,704; cited from earlier work

With `O=C(O)Cc1ccc(-c2ccccc2)cc1` [4-Biphenylacetic acid] the inhibition at 100 mg/kg (platelet rich plasma) was 12%, the “period of respiratory distress, Average, Treated” value ([1]; 100 mg./kg. orally, arachidonic acid 50 mg./kg. i.v. two hours later, average of 21 treated animals (controls 7.58 minutes)) was 1.93 min and the “period of respiratory distress, Time in Seconds, Treated (individual animals)” value ([1]; 100 mg./kg. orally, arachidonic acid 50 mg./kg. i.v. two hours later, individual animals 1-21, one line each in order) was 420 s and 200 s and 30 s and 150 s and 170 s and 80 s and 195 s and 125 s and 35 s and 120 s and 25 s and 20 s and 60 s and 50 s and 90 s and 75 s and 70 s and 189 s and 100 s. For the same compound, the “inhibition of respiratory depression induced by arachidonic acid (in words)” value ([1]; in vivo) was “inhibits the respiratory depression”, the inhibition at 25 µg/mL ([2]; concentration 25 mcg./ml.) was 38.6% and the inhibition at 250 µg/mL ([2]; concentration 250 mcg./ml.) was 40.7%. The “amelioration of pain (in words)” value (pain) was “long lasting amelioration of pain”.
